Results reported in patent US4554367A, “Phosphonium organohalogenostannates-IV” (priority 1982, dated 1985).

What was measured:
[1] = system: Artemia salina; assay: Action against Artemia salina; format: in vivo; set-up: key: 0: nauplii not affected; 1: slight change; 1-2: nauplii affected; 2: nauplii severely affected; 2-3: almost all nauplii dead; 3: all nauplii dead
Excerpt: Determination of the action against Artemia salina
The commercially available eggs are caused to hatch under powerful aeration. […]

[2] = system: Enterobacter aerogenes; assay: MIC against bacteria, strain C; format: cell-based; conditions: 24 h, 30° C., tested at 100 or 300 mg/liter
Protocol: (§1) Determination of the minimum inhibitory concentration (MIC) against bacteria
(§2) ONCs (cultures incubated overnight) of the bacteria strains A-F grown in Caso-Peptone broth (Merck) are each diluted […] in saline. An amount of the suspension is introduced into Caso-Peptone broth such that the bacteria are again diluted 1:1,000. The cultures are treated with 100 or 300 mg/liter of the phosphonium stannates shown in Table B. After incubation at 30° C. in a shaking water bath for 24 hours, the cultures are evaluated on the basis of cloudiness. The MIC is the concentration at which the broth is not clouded by bacterial growth.

[3] = system: Penicillium funiculosum; assay: MIC against fungi, strain I; format: cell-based; conditions: malt extract agar
Protocol: (§3) Determination of the minimum inhibitory concentration (MIC) against fungi
(§4) The investigation is carried out in malt extract agar (Merck) by the known agar incorporation test using the fungi
I Penicillium funiculosum
(§5) For inhibition, the various compounds are in each case added in amounts such that concentrations of […] results in the agar. The concentrations (mg/liter) required for inhibition of the growth of the fungi (starting from traces of fungi dripped on) are illustrated in Table D.

[4] = system: Pseudomonas aeruginosa; assay: MIC against bacteria, strain B; format: cell-based; conditions: 24 h, 30° C., tested at 100 or 300 mg/liter
Protocol: as §1, §2

[5] = system: Endomyces geotrichum; assay: MIC against fungi, strain M; format: cell-based; conditions: malt extract agar
Protocol: as §3, §4, §5

[6] = system: Proteus vulgaris; assay: MIC against bacteria, strain A; format: cell-based; conditions: 24 h, 30° C., tested at 100 or 300 mg/liter
Protocol: as §1, §2

[7] = system: Candida albicans; assay: MIC against fungi, strain L; format: cell-based; conditions: malt extract agar
Protocol: as §3, §4, §5

[8] = system: Chlorella vulgaris; assay: Action against Chlorella vulgaris; format: cell-based; set-up: key to Growth in the medium: 1: no growth in the medium, 3 ppm have a growthinhibiting action; key to Growth on the agar: 2: no growth on the agar, 3 ppm have destroyed the algae within 6 hours; conditions: 3 mg/liter; for Growth on the agar: 6 hours exposure (algae-destruction action); for Growth in the medium: 14 days (inhibition of growth)
Protocol: Determination of the action against algae
A Chlorella vulgaris culture grown for 14 days in algae nutrient medium is diluted 1:200 in algae nutrient medium. Each of the compounds listed in Table E is then added such that a concentration of 3 mg/liter results. After incubation for 6 hours, 10 μl are in each case withdrawn and dripped onto algae agar in order to determine the destructive action.

[9] = system: Alkaligenes denitrificans; assay: MIC against bacteria, strain E; format: cell-based; conditions: 24 h, 30° C., tested at 100 or 300 mg/liter
Protocol: as §1, §2

[10] = system: Aspergillus phoenicia; assay: MIC against fungi, strain H; format: cell-based; conditions: malt extract agar
Protocol: as §3, §4, §5

[11] = system: Aspergillus niger; assay: MIC against fungi, strain G; format: cell-based; conditions: malt extract agar
Protocol: as §3, §4

[12] = system: Chaetomium globosum; assay: MIC against fungi, strain O; format: cell-based; conditions: malt extract agar
Protocol: as §3, §4, §5

[13] = system: Bacillus subtilis; assay: MIC against bacteria, strain F; format: cell-based; conditions: 24 h, 30° C., tested at 100 or 300 mg/liter
Protocol: as §1, §2

[14] = system: Aureobasidium pullulans; assay: MIC against fungi, strain N; format: cell-based; conditions: malt extract agar
Protocol: as §3, §4
N Aureobasidium pullulans
as §5

[15] = system: Serratia marcenscens; assay: MIC against bacteria, strain D; format: cell-based; conditions: 24 h, 30° C., tested at 100 or 300 mg/liter
Protocol: as §1, §2

[16] = system: Cladosporium cladosporioides; assay: MIC against fungi, strain K; format: cell-based; conditions: malt extract agar
Protocol: as §3, §4
K Cladosporium cladosporioides
as §5

[17] = system: Alternaria alternata; assay: MIC against fungi, strain J; format: cell-based; conditions: malt extract agar
Protocol: as §3, §4, §5

[18] = system: Aureobasidium pullans; assay: Growth on wood; conditions: 28° C., 4 weeks
Protocol: Small wooden blocks of spruce, 7×10×10 mm in size, are dried under a vacuum for 30 minutes. The small blocks are then subjected to impregnation under a vacuum, by being left in 20 ml of distilled water and the biocide under vacuum for 30 minutes, and are then exposed to pressure treatment (2 atmospheres gauge by compressed air) in water for 18 hours. The pieces of wood thus treated are either immediately dried or first subjected to bleaching in running water and then dried.
The small dried pieces of wood are placed on potato glucose agar and the wood and surrounding agar are innoculated with 0.1 ml of a spore suspension of Aureobasidium pullans. After incubation at 28° C. for 4 weeks, the growth is evaluated according to the following plan.
4=No growth on the wood, inhibitory zone up to 2 mm
5=No growth on the wood, inhibitory zone greater than 2 mm

Row | Compound | Action against Artemia salina ([1]; 0.25 mg/liter, 6 hours) | Action against Artemia salina ([1]; 0.25 mg/liter, 24 hours) | Action against Artemia salina ([1]; 0.25 mg/liter, 48 hours) | MIC [2] | MIC against fungi [3] | MIC [4] | MIC against fungi [5] | MIC [6] | MIC against fungi [7] | Growth on the agar [8] | Growth in the medium [8] | MIC [9] | MIC against fungi [10] | MIC against fungi [11] | MIC against fungi [12] | MIC [13] | MIC against fungi [14] | MIC [15] | MIC against fungi [16] | MIC against fungi [17] | further results
1 | CCCCCCCCCCCCCC[P+](CCCC)(CCCC)CCCC.CCCCCCCCCCCCCC[P+](CCCC)(CCCC)CCCC.[CH3][Sn-2]([CH3])([Cl])([Cl])([Cl])[Cl] [Example 21] | 1-2 | 3 | 3 | 100 µg/mL | 10 µg/mL | 100 µg/mL | 10 µg/mL | 100 µg/mL | 10 µg/mL | 2 | 1 | 100 µg/mL | 50 µg/mL | 50 µg/mL | 10 µg/mL | 100 µg/mL | 10 µg/mL | 100 µg/mL | 10 µg/mL | 50 µg/mL | Action against Artemia salina ([1]; 0.5 mg/liter, 6 hours): 1-2; Action against Artemia salina ([1]; 0.5 mg/liter, 24 hours): 2; Action against Artemia salina ([1]; 0.5 mg/liter, 48 hours): 3; Action against Artemia salina ([1]; 1 mg/liter, 6 hours): 1-2; Action against Artemia salina ([1]; 1 mg/liter, 24 hours): 3; Action against Artemia salina ([1]; 1 mg/liter, 48 hours): 3; Action against Artemia salina ([1]; 2.5 mg/liter, 6 hours): 1-2; Action against Artemia salina ([1]; 2.5 mg/liter, 24 hours): 3; Action against Artemia salina ([1]; 2.5 mg/liter, 48 hours): 3
2 | CCCCCCCCCCCCCC[P+](CCCC)(CCCC)CCCC.[CH3][Sn-]([Cl])([Cl])([Cl])[Cl] [Example 22] | 0 | 1-2 | 2-3 | 100 µg/mL | 10 µg/mL | 100 µg/mL | 10 µg/mL | 100 µg/mL | 10 µg/mL | 2 | 1 | 100 µg/mL | 50 µg/mL | 50 µg/mL | 10 µg/mL | 100 µg/mL | 10 µg/mL | 100 µg/mL | 10 µg/mL | 50 µg/mL | Action against Artemia salina ([1]; 0.5 mg/liter, 6 hours): 1-2; Action against Artemia salina ([1]; 0.5 mg/liter, 24 hours): 3; Action against Artemia salina ([1]; 0.5 mg/liter, 48 hours): 3; Action against Artemia salina ([1]; 1 mg/liter, 6 hours): 1-2; Action against Artemia salina ([1]; 1 mg/liter, 24 hours): 3; Action against Artemia salina ([1]; 1 mg/liter, 48 hours): 3; Action against Artemia salina ([1]; 2.5 mg/liter, 6 hours): 1-2; Action against Artemia salina ([1]; 2.5 mg/liter, 24 hours): 3; Action against Artemia salina ([1]; 2.5 mg/liter, 48 hours): 3
3 | CCCCCCCCCCCCCC[P+](CCCC)(CCCC)CCCC.CCCCCCCCCCCCCC[P+](CCCC)(CCCC)CCCC.[CH3][Sn-2]([Cl])([Cl])([Cl])([Cl])[Cl] [Example 23] | 0 | 1-2 | 2-3 | 100 µg/mL | 10 µg/mL | 100 µg/mL | 10 µg/mL | 100 µg/mL | 10 µg/mL | 2 | 1 | 100 µg/mL | 50 µg/mL | 50 µg/mL | 10 µg/mL | 100 µg/mL | 10 µg/mL | 100 µg/mL | 10 µg/mL | 50 µg/mL | Action against Artemia salina ([1]; 0.5 mg/liter, 6 hours): 1-2; Action against Artemia salina ([1]; 0.5 mg/liter, 24 hours): 2-3; Action against Artemia salina ([1]; 0.5 mg/liter, 48 hours): 3; Action against Artemia salina ([1]; 1 mg/liter, 6 hours): 1-2; Action against Artemia salina ([1]; 1 mg/liter, 24 hours): 3; Action against Artemia salina ([1]; 1 mg/liter, 48 hours): 3; Action against Artemia salina ([1]; 2.5 mg/liter, 6 hours): 1-2; Action against Artemia salina ([1]; 2.5 mg/liter, 24 hours): 3; Action against Artemia salina ([1]; 2.5 mg/liter, 48 hours): 3
4 | CCCCCCCCCCCCCC[P+](CCCC)(CCCC)CCCC.CCC[CH2][Sn-]([Cl])([Cl])([Cl])[Cl] [Example 24] | – | – | – | 100 µg/mL | 10 µg/mL | 100 µg/mL | 50 µg/mL | 100 µg/mL | 50 µg/mL | 2 | 1 | 100 µg/mL | > 100 µg/mL | > 100 µg/mL | 50 µg/mL | 100 µg/mL | 10 µg/mL | 100 µg/mL | 10 µg/mL | > 100 µg/mL | –
5 | CCCCCCCCCCCCCC[P+](CCCC)(CCCC)CCCC.CCCCCCCCCCCCCC[P+](CCCC)(CCCC)CCCC.CCC[CH2][Sn-2]([Cl])([Cl])([Cl])([Cl])[Cl] [Example 25] | – | – | – | 100 µg/mL | 10 µg/mL | 100 µg/mL | 10 µg/mL | 100 µg/mL | 50 µg/mL | 2 | 1 | 100 µg/mL | > 100 µg/mL | 100 µg/mL | 50 µg/mL | 100 µg/mL | 10 µg/mL | 100 µg/mL | 10 µg/mL | 100 µg/mL | –
6 | OC[P+](CO)(CO)CO.[Cl][Sn-]([Cl])([CH]1CCCCC1)([CH]1CCCCC1)[CH]1CCCCC1 [Example 26] | – | – | – | – | – | – | – | – | – | – | – | – | – | – | – | – | – | – | – | – | Growth on wood, leached for 5 days ([18]; 0.01% in H2O): 4 (No growth on the wood, inhibitory zone up to 2 mm); Growth on wood, not leached ([18]; 0.01% in H2O): 5 (No growth on the wood, inhibitory zone greater than 2 mm); Growth on wood, leached for 5 days ([18]; 0.05% in H2O): 5 (No growth on the wood, inhibitory zone greater than 2 mm); Growth on wood, not leached ([18]; 0.05% in H2O): 5 (No growth on the wood, inhibitory zone greater than 2 mm)
7 | CCCC[P+](CCCC)(CCCC)CCCC.CCC[CH2][Sn-]([Cl])([Cl])([CH2]CCC)[CH2]CCC [Example 45] | – | – | – | – | 10 µg/mL | – | 10 µg/mL | – | 10 µg/mL | 2 | 1 | – | 10 µg/mL | 10 µg/mL | 10 µg/mL | – | 10 µg/mL | – | 10 µg/mL | 10 µg/mL | –
